# US10912815B2, “Inhibitors of mitochondrial fission and methods of use thereof” (The Board of Trustees of the Leland Stanford Junior …, priority 2011, dated 2021)
# Entries after “also recorded” stand apart in the source; their conditions may differ. No end group written: not given here.
# Key:
# Drp1/Fis1 interaction = Drp1/Fis1 interaction (Homo sapiens, UniProt O00429); assay: Direct binding between recombinant Drp1 and Fis1 (immunoprecipitation); conditions: peptides 1 μM each, Drp1 50 ng, Fis1 50 ng, FIG. 2D
# Chain of Drp1/Fis1 interaction (O00429 1-710 isoform O00429-3): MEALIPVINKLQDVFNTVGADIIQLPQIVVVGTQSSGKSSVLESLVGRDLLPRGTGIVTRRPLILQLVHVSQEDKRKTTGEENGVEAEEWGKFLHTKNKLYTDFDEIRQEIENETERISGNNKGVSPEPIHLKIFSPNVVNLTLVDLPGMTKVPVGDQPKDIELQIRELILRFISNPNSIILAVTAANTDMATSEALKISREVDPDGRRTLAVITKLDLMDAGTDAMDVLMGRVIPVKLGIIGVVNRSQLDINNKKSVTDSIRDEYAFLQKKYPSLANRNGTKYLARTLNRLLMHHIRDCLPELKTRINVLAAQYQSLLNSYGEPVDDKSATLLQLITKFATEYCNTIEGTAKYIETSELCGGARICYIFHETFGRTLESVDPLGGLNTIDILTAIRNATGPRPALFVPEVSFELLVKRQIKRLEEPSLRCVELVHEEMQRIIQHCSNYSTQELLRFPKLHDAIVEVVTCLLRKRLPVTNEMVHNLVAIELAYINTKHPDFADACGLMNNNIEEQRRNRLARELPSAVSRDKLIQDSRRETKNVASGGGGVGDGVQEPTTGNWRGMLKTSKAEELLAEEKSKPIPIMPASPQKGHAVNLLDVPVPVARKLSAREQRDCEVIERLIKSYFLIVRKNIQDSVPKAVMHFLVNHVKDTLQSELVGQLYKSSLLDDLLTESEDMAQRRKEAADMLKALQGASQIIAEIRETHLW
# Experimental: In another set of experiments, Drp1 was incubated with Fis1 and the complex was immunoprecipitated using anti-Drp1 antibody followed by immunoblotting with anti-Fis1 antibody. For direct binding between Drp1 and Fis1, recombinant Drp1 (50 ng) and Fis1 (50 ng) were incubated in PBS containing 1 mM DSP for 30 min in the presence or absence of Drp1/Fis1 peptides (1 μM each) or control peptide TAT. After termination of the reaction by 50 mM Tris-HCl, pH 7.5, reaction mixtures were subjected to immunoprecipitation with anti-Fis1 antibody in the presence of 1% Triton X-100. Immunoprecipitates were washed with PBS containing 1% Triton X-100 and analyzed by SDS-PAGE and subsequent immunoblotting with antibodies to Fis1 and Drp1.
# Drp1 = assay: Confocal imaging of Drp1 localization on mitochondria in SH-SY5Y cells; type: cell-based, human; conditions: SH-SY5Y exposed to MPP+ or CCCP, FIG. 3G
# Experimental: (§1) The effects of MPP+ or CCCP on translocation of Drp1 in the absence and presence of P110 was measured using confocal microscopy. Cultured SH-SY5Y cells in black 96-well plate were treated with Drp1 peptide inhibitor P110 (1 μM) 30 min prior to treatment of MPP+ (2 mM) or CCCP (5 uM). After 2 hrs of treatment, cells were stained with MITOSOX™ (red mitochondrial superoxide indicator) (5 uM, for 10 min, mitochondrial ROS) or TMRM (0.5 uM, for 20 min, MMP) at 37° C. For total ROS detection, cells were treated with MPP+ or CCCP for 24 hrs. ROS level was measured by CM-H2DCFDA (1 μM for 30 min, Invitrogen). Cells were washed with PBS for three times. The detection was performed in a fluorescence microplate reader (Tecan, Infinite M1000) according to manufacturer's instructions. Measurements were normalized to the cell number counted using Hoechst staining.
# The data, quantitated by Image J software, is provided in a histogram FIG. 3G.
# SH-SY5Y cells [1] = assay: Mitochondrial morphology/fragmentation in SH-SY5Y cells (TOM20 staining); type: cell-based, human; conditions: for percentage of cells with fragmented mitochondria: P110 1 μM 30 min, FIG. 5
# Experimental: To determine effects of P110 on mitochondrial morphology in response to mitochondrial stresses, an immuno-staining approach was used. In one experiment, SH-SY5Y neuronal cells were treated with Drp1 peptides or Drp1 siRNA followed by treatment of MPP+. The cells were then stained with TOM20 and Hoechst stain.
# In another experiment, cultured SH-SY5Y cells were treated with P110 (1 μM) for 30 min followed by incubation with MPP+(2 mM, 4 hrs) or CCCP (5 uM, 30 min). The cells were then stained with anti-Tom 20 antibody (green) and Hoechst stain (scale bar 0.5 μm). Mitochondrial morphology was analyzed using 63× oil lens. The data were analyzed and are presented as a histogram in which the percentage of cells with fragmented mitochondria relative to the total number of cells is presented as the mean±S.E. of 3 independent experiments. At least 200 cells per group were counted.
# SH-SY5Y cells [2] = assay: Total ROS production in SH-SY5Y cells (CM-H2DCFDA); type: cell-based, human; conditions: MPP+ and CCCP 24 hrs, FIG. 6E
# Experimental: as §1
# Mitochondrial membrane potential was also determined using TMRM (tetramethylrhodamine methylester). […] Fluoresence detection was performed using black 96-well plates in a fluorescence microplate reader at 560 nm excitation and 690 nm emission and potential was assessed by quenching of the fluorescent signal. […] A kinetic change of mitochondrial superoxide production was determined by using MITOSOX™ (red mitochondrial superoxide indicator). […]
# SH-SY5Y cells [3] = assay: Autophagy marker LC3 in SH-SY5Y cells; type: cell-based, human; conditions: MPP+
# From the text: Autophagy is another consequence of excessive mitochondrial fission (Twig et al., 2008, EMBO J 27:433-446; Wikstrom et al., 2009, Int J Biochem Cell Biol 41:1914-1927). Autophagy can be measured by the induction of the autophagic marker LC3 (microtubule-associated protein 1, light chain 3, also known as ATG8). Cultured SH-SY5Y cells were stained by anti-LC3 antibodies and nuclei were stained by Hoechsts staining. A histogram (FIG. 9C) depicts the number of LC3-positive punctate/per cell in the indicated groups. The data are presented as the mean±S.E. of three independent experiments. Western blot analysis of LC3 I/II with anti-LC3 antibodies is shown and is presented as a histogram where the data are expressed as mean±S.E. of three independent experiments (FIG. 9D, left panel).
# [4] = test system: Primary rat dopaminergic neurons; assay: Neurite loss of primary dopaminergic neurons exposed to MPP+ (TH staining); type: cell-based; conditions: P110 1 μM, MPP+ 1 μM, FIG. 10C
# Experimental: Primary rat dopaminergic neurons (cultured for 6 days) were treated without or with P110 (1 μM) followed by treatment with or without MPP+(1 μM). Two hrs following MPP+ treatment, the cells were stained with MITOSOX™ red (to measure mitochondrial superoxide production) and anti-TH antibody (a marker of dopaminergic neurons). Fifteen hrs after MPP+ treatment, cells were stained with anti-TH antibody and anti-Tom20 antibody (a marker of mitochondria).
sequence,measurement,setting,value
"RRRQRRKKRGYGGDLLPRGS (RRRQRRKKRGYGGDLLPRGS-NH2) [P110, TAT47-57 carrier, GG linker, Drp1 region 110 (GTPase domain) peptide DLLPRGS; C-terminus C(O)-NH2]","Drp1-Fis1 interaction, recombinant proteins",Drp1/Fis1 interaction,blocked
same,co-localization of Drp1 with mitochondria,Drp1,greatly reduced
same,percentage of cells with fragmented mitochondria,"SH-SY5Y cells [1]; then CCCP 5 uM 30 min, 63% without P110",23%
same,percentage of cells with fragmented mitochondria,"SH-SY5Y cells [1]; then MPP+ 2 mM 4 hrs, 50% without P110",14%
same,reduction of mitochondrial fragmentation in cells exposed to MPP+,"SH-SY5Y cells [1]; SH-SY5Y, MPP+, p<0.01, n=3, FIG. 4A, 4B",70%
same,mitochondrial morphology/network in control (non-stressed) cells,"SH-SY5Y cells [1]; SH-SY5Y, no stressor",minimal effects; also recorded: no effect; also recorded: did not observe dramatic difference
same,total ROS produced by the mitochondrial stressors,SH-SY5Y cells [2],greatly reduced
same,number of LC3-positive puncti in the cells,SH-SY5Y cells [3]; FIG. 9C,reduced
same,LC3 cleavage (LC3 I to LC3 II),SH-SY5Y cells [3]; FIG. 9D,reduced
same,neurite loss of dopaminergic neurons (TH),[4],reduced neurite loss
